System: SK-OV-3 multi-cell spheroids, viability
Assay: Anticancer human tumor SK-OV-3 cell line growth inhibition [IpAb];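 on viability, T/C: viability read after seven days of drug exposure; percent of DMSO vehicle control luminescence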
Conditions: for IC50: curve of first compound; for viability, T/C: stronger effect = lower value
In short: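 Combinations with ipatasertib or abemaciclib were tested on tumour spheroids holding HUVEC (25%) and MSC (15%) alongside 60% malignant cells. Top concentration was at or near clinical Cmax (10 microM if undefined), descending in half-log steps.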

[1] = second compound 0.1 µM, first compound 0.0316 µM
[2] = second compound 0.1 µM, first compound 0.1 µM
[3] = second compound 0.1 µM, first compound 0.316 µM
[4] = second compound 0.1 µM, first compound 1 µM
[5] = second compound 0.1 µM, first compound 3.16 µM
[6] = second compound 0.1 µM, first compound 10 µM
[7] = second compound 0.316 µM, first compound 0.0316 µM
[8] = second compound 0.316 µM, first compound 0.1 µM
[9] = second compound 0.316 µM, first compound 0.316 µM
[10] = second compound 0.316 µM, first compound 1 µM
[11] = second compound 0.316 µM, first compound 3.16 µM
[12] = second compound 0.316 µM, first compound 10 µM
[13] = second compound 1 µM, first compound 0.0316 µM
[14] = second compound 1 µM, first compound 0.1 µM
[15] = second compound 1 µM, first compound 0.316 µM
[16] = second compound 1 µM, first compound 1 µM
[17] = second compound 1 µM, first compound 3.16 µM
[18] = second compound 1 µM, first compound 10 µM
[19] = second compound 3.16 µM, first compound 0.0316 µM
[20] = second compound 3.16 µM, first compound 0.1 µM
[21] = second compound 10 µM, first compound 0.0316 µM
[22] = second compound 10 µM, first compound 0.1 µM

Cn1ncc(Cl)c1-c1cc(C(=O)NC(CN)Cc2cccc(F)c2)sc1Cl (stereo not given) + CC(C)NCC(C(=O)N1CCN(c2ncnc3c2C(C)CC3O)CC1)c1ccc(Cl)cc1
IC50 (second compound 0.1 µM): 58.8 nM
IC50 (second compound 0.316 µM): < 31.6 nM
IC50 (second compound 1 µM): < 31.6 nM
IC50 (second compound 3.16 µM): < 31.6 nM
IC50 (second compound 10 µM): < 31.6 nM
viability, T/C [1]: 62.6%
viability, T/C [2]: 38.1%
viability, T/C [3]: 25%
viability, T/C [4]: 16.4%
viability, T/C [5]: 8.41%
viability, T/C [6]: 0.21%
viability, T/C [7]: 36.4%
viability, T/C [8]: 28.2%
viability, T/C [9]: 19.7%
viability, T/C [10]: 13.8%
viability, T/C [11]: 8.71%
viability, T/C [12]: 0.38%
viability, T/C [13]: 20.7%
viability, T/C [14]: 18.3%
viability, T/C [15]: 17.6%
viability, T/C [16]: 13.6%
viability, T/C [17]: 8.68%
viability, T/C [18]: 0.2%
viability, T/C [19]: 15.7%
viability, T/C [20]: 15.9%
viability, T/C (second compound 3.16 µM, first compound 0.316 µM): 15.9%
viability, T/C (second compound 3.16 µM, first compound 1 µM): 12.9%
viability, T/C (second compound 3.16 µM, first compound 3.16 µM): 6.61%
viability, T/C (second compound 3.16 µM, first compound 10 µM): 0.36%
viability, T/C [21]: 10.6%
viability, T/C [22]: 11.4%
viability, T/C (second compound 10 µM, first compound 0.316 µM): 9.32%
viability, T/C (second compound 10 µM, first compound 1 µM): 6.87%
viability, T/C (second compound 10 µM, first compound 3.16 µM): 4.93%
viability, T/C (second compound 10 µM, first compound 10 µM): 0.28%

Cn1ncnc1[C@H]1c2n[nH]c(=O)c3cc(F)cc(c23)N[C@@H]1c1ccc(F)cc1 + CC(C)NCC(C(=O)N1CCN(c2ncnc3c2C(C)CC3O)CC1)c1ccc(Cl)cc1
IC50 (second compound 0.1 µM): > 100 nM
IC50 (second compound 0.316 µM): < 0.316 nM
IC50 (second compound 1 µM): < 0.316 nM
IC50 (second compound 3.16 µM): < 0.316 nM
IC50 (second compound 10 µM): < 0.316 nM
viability, T/C (second compound 0.1 µM, first compound 0.000316 µM): 74.2%
viability, T/C (second compound 0.1 µM, first compound 0.001 µM): 78.8%
viability, T/C (second compound 0.1 µM, first compound 0.00316 µM): 60.9%
viability, T/C (second compound 0.1 µM, first compound 0.01 µM): 69.4%
viability, T/C [1]: 65.4%
viability, T/C [2]: 58.8%
viability, T/C (second compound 0.316 µM, first compound 0.000316 µM): 34.5%
viability, T/C (second compound 0.316 µM, first compound 0.001 µM): 39.5%
viability, T/C (second compound 0.316 µM, first compound 0.00316 µM): 41.2%
viability, T/C (second compound 0.316 µM, first compound 0.01 µM): 38.4%
viability, T/C [7]: 38.3%
viability, T/C [8]: 33.2%
viability, T/C (second compound 1 µM, first compound 0.000316 µM): 22.9%
viability, T/C (second compound 1 µM, first compound 0.001 µM): 21.5%
viability, T/C (second compound 1 µM, first compound 0.00316 µM): 20.5%
viability, T/C (second compound 1 µM, first compound 0.01 µM): 20.4%
viability, T/C [13]: 20.9%
viability, T/C [14]: 19%
viability, T/C (second compound 3.16 µM, first compound 0.000316 µM): 19%
viability, T/C (second compound 3.16 µM, first compound 0.001 µM): 17.1%
viability, T/C (second compound 3.16 µM, first compound 0.00316 µM): 15.1%
viability, T/C (second compound 3.16 µM, first compound 0.01 µM): 15.4%
viability, T/C [19]: 12.8%
viability, T/C [20]: 16.1%
viability, T/C (second compound 10 µM, first compound 0.000316 µM): 10.3%
viability, T/C (second compound 10 µM, first compound 0.001 µM): 10.1%
viability, T/C (second compound 10 µM, first compound 0.00316 µM): 10.3%
viability, T/C (second compound 10 µM, first compound 0.01 µM): 9.69%
viability, T/C [21]: 8.59%
viability, T/C [22]: 9.45%

C=CCn1c(=O)c2cnc(Nc3ccc(N4CCN(C)CC4)cc3)nc2n1-c1cccc(C(C)(C)O)n1 + CCN1CCN(Cc2ccc(Nc3ncc(F)c(-c4cc(F)c5nc(C)n(C(C)C)c5c4)n3)nc2)CC1
IC50 (second compound 0.01 µM): 90 nM
IC50 (second compound 0.0316 µM): 55.9 nM
IC50 (second compound 0.1 µM): < 31.6 nM
IC50 (second compound 0.316 µM): 39.3 nM
IC50 (second compound 1 µM): < 31.6 nM
viability, T/C (second compound 0.01 µM, first compound 0.0316 µM): 83.9%
viability, T/C (second compound 0.01 µM, first compound 0.1 µM): 46.6%
viability, T/C (second compound 0.01 µM, first compound 0.316 µM): 13.1%
viability, T/C (second compound 0.01 µM, first compound 1 µM): 7.77%
viability, T/C (second compound 0.01 µM, first compound 3.16 µM): 4.03%
viability, T/C (second compound 0.01 µM, first compound 10 µM): 6.24%
viability, T/C (second compound 0.0316 µM, first compound 0.0316 µM): 63.7%
viability, T/C (second compound 0.0316 µM, first compound 0.1 µM): 36%
viability, T/C (second compound 0.0316 µM, first compound 0.316 µM): 12.1%
viability, T/C (second compound 0.0316 µM, first compound 1 µM): 8.26%
viability, T/C (second compound 0.0316 µM, first compound 3.16 µM): 6.84%
viability, T/C (second compound 0.0316 µM, first compound 10 µM): 6.66%
viability, T/C [1]: 49.2%
viability, T/C [2]: 36.3%
viability, T/C [3]: 14.4%
viability, T/C [4]: 9.93%
viability, T/C [5]: 5.86%
viability, T/C [6]: 8.17%
viability, T/C [7]: 53.5%
viability, T/C [8]: 34.8%
viability, T/C [9]: 17.9%
viability, T/C [10]: 15%
viability, T/C [11]: 10.3%
viability, T/C [12]: 10.5%
viability, T/C [13]: 36.4%
viability, T/C [14]: 29.3%
viability, T/C [15]: 19.7%
viability, T/C [16]: 16.9%
viability, T/C [17]: 17.4%
viability, T/C [18]: 15.6%

Cn1cnc2c(F)c(Nc3ccc(Br)cc3Cl)c(C(=O)NOCCO)cc21 + CCN1CCN(Cc2ccc(Nc3ncc(F)c(-c4cc(F)c5nc(C)n(C(C)C)c5c4)n3)nc2)CC1
IC50 (second compound 0.01 µM): 1670 nM
IC50 (second compound 0.0316 µM): 1180 nM
IC50 (second compound 0.1 µM): 390 nM
IC50 (second compound 0.316 µM): 167 nM
IC50 (second compound 1 µM): < 9.49 nM
viability, T/C (second compound 0.01 µM, first compound 0.00949 µM): 90.9%
viability, T/C (second compound 0.01 µM, first compound 0.03 µM): 95.4%
viability, T/C (second compound 0.01 µM, first compound 0.0949 µM): 98%
viability, T/C (second compound 0.01 µM, first compound 0.3 µM): 96%
viability, T/C (second compound 0.01 µM, first compound 0.949 µM): 65.5%
viability, T/C (second compound 0.01 µM, first compound 3 µM): 33.9%
viability, T/C (second compound 0.0316 µM, first compound 0.00949 µM): 80.6%
viability, T/C (second compound 0.0316 µM, first compound 0.03 µM): 79.5%
viability, T/C (second compound 0.0316 µM, first compound 0.0949 µM): 84.1%
viability, T/C (second compound 0.0316 µM, first compound 0.3 µM): 75.1%
viability, T/C (second compound 0.0316 µM, first compound 0.949 µM): 55.5%
viability, T/C (second compound 0.0316 µM, first compound 3 µM): 27.1%
viability, T/C (second compound 0.1 µM, first compound 0.00949 µM): 59.8%
viability, T/C (second compound 0.1 µM, first compound 0.03 µM): 59.1%
viability, T/C (second compound 0.1 µM, first compound 0.0949 µM): 66.8%
viability, T/C (second compound 0.1 µM, first compound 0.3 µM): 51.2%
viability, T/C (second compound 0.1 µM, first compound 0.949 µM): 38.6%
viability, T/C (second compound 0.1 µM, first compound 3 µM): 28.2%
viability, T/C (second compound 0.316 µM, first compound 0.00949 µM): 61.7%
viability, T/C (second compound 0.316 µM, first compound 0.03 µM): 63.7%
viability, T/C (second compound 0.316 µM, first compound 0.0949 µM): 49.1%
viability, T/C (second compound 0.316 µM, first compound 0.3 µM): 47.4%
viability, T/C (second compound 0.316 µM, first compound 0.949 µM): 38.8%
viability, T/C (second compound 0.316 µM, first compound 3 µM): 28.4%
viability, T/C (second compound 1 µM, first compound 0.00949 µM): 41.8%
viability, T/C (second compound 1 µM, first compound 0.03 µM): 50.6%
viability, T/C (second compound 1 µM, first compound 0.0949 µM): 50.8%
viability, T/C (second compound 1 µM, first compound 0.3 µM): 44.6%
viability, T/C (second compound 1 µM, first compound 0.949 µM): 35.9%
viability, T/C (second compound 1 µM, first compound 3 µM): 24.2%
